# Source: patent publication US4868299A, “Antibacterially active pyrido-benzothiazine derivatives with long-term action” (Mediolanum Farmaceutici Srl, priority 1986, dated 1989)
# Read-outs that look alike come from different tables or passages of the source.
# Columns and labels:
# [1] = tested on: Citrobacter 118; test: in-vitro antibacterial activity, MIC by agar dilution (multipoint inoculator); format: cell-based; conditions: Citrobacter 118; 18 hours at 37° C; read-out: Minimum Inhibiting Concentration (MIC)
# Procedure: (§1) The antibacterial activity of the compounds according to the invention was determined "in vitro" on pathogenic strains of recent clinical isolation by testing agar dilutions using a multipoint inoculator (Denley Techn. Ltd., England).
# (§2) The culture medium used is isosensitest agar (Oxoid), in a quantity of 20 ml in a Petri capsule. The compounds to be tested were dissolved at various dilutions and incorporated in agar.
# (§3) The bacterial inoculum, originating from an overnight broth and containing 10^5 colony-forming units per point, was inoculated by a multipoint inoculator. The bacterial growth was evaluated after 18 hours of incubation at 37° C.
# (§4) For comparison purposes, the results relative to compound (XIII) and to nalidixic acid are also reported.
# [2] = tested on: Citrobacter 120; test: as above; format: cell-based; conditions: Citrobacter 120; 18 hours at 37° C; read-out: Minimum Inhibiting Concentration (MIC)
# Procedure: as §1, §2, §3, §4
# [3] = tested on: Enterobacter 041; test: as above; format: cell-based; conditions: Enterobacter 041; 18 hours at 37° C; read-out: Minimum Inhibiting Concentration (MIC)
# Procedure: as §1, §2, §3, §4
# [4] = tested on: Enterobacter 2653; test: as above; format: cell-based; conditions: Enterobacter 2653; 18 hours at 37° C; read-out: Minimum Inhibiting Concentration (MIC)
# Procedure: as §1, §2, §3, §4
# [5] = tested on: Escherichia 15; test: as above; format: cell-based; conditions: 18 hours at 37° C, read-out: Minimum Inhibiting Concentration (MIC)
# Procedure: as §1, §2, §3, §4
# [6] = tested on: Escherichia 963; test: as above; format: cell-based; conditions: Escherichia 963; 18 hours at 37° C; read-out: Minimum Inhibiting Concentration (MIC)
# Procedure: as §1, §2, §3, §4
# [7] = tested on: Klebsiella 4; test: as above; format: cell-based; conditions: Klebsiella 4; 18 hours at 37° C; read-out: Minimum Inhibiting Concentration (MIC)
# Procedure: as §1, §2, §3, §4
# [8] = tested on: Proteus 25; test: as above; format: cell-based; conditions: Proteus 25; 18 hours at 37° C; read-out: Minimum Inhibiting Concentration (MIC)
# Procedure: as §1, §2, §3, §4
# [9] = tested on: Proteus 966; test: as above; format: cell-based; conditions: Proteus 966; 18 hours at 37° C; read-out: Minimum Inhibiting Concentration (MIC)
# Procedure: as §1, §2, §3, §4
# [10] = tested on: Pseudomonas 19; test: as above; format: cell-based; conditions: Pseudomonas 19; 18 hours at 37° C; read-out: Minimum Inhibiting Concentration (MIC)
# Procedure: as §1, §2, §3, §4
# [11] = tested on: Pseudomonas 22437; test: as above; format: cell-based; conditions: 18 hours at 37° C, read-out: Minimum Inhibiting Concentration (MIC)
# Procedure: as §1, §2, §3, §4
# [12] = tested on: Serratia 10; test: as above; format: cell-based; conditions: 18 hours at 37° C, read-out: Minimum Inhibiting Concentration (MIC)
# Procedure: as §1, §2, §3, §4
# [13] = tested on: Serratia 9; test: as above; format: cell-based; conditions: Serratia 9; 18 hours at 37° C; read-out: Minimum Inhibiting Concentration (MIC)
# Procedure: as §1, §2, §3, §4
# [14] = tested on: Staphylococcus 29; test: as above; format: cell-based; conditions: Staphylococcus 29; 18 hours at 37° C; read-out: Minimum Inhibiting Concentration (MIC)
# Procedure: as §1, §2, §3, §4
# [15] = tested on: Staphylococcus 7; test: as above; format: cell-based; conditions: Staphylococcus 7; 18 hours at 37° C; read-out: Minimum Inhibiting Concentration (MIC)
# Procedure: as §1, §2, §3, §4
# [16] = urine concentrations after oral administration to the rat (HPLC); format: in vivo; conditions: 50 mg/kg oral; for Cumulative excretion (urine) / Volume excreted (urine): pool of 6 rats
# Procedure: (§5) The compound (X) was administered orally at a dose of 50 mg/kg to the rat after which the plasma, tissue and urine concentrations were evaluated by the HPLC method, as described hereinafter.
# The urine was collected at various times during the 24 hours following administration. The results relative to urine concentrations are summarised in Table 2, and refer to a urine pool obtained form 6 female rates having a weight of about 100 g.
# (§6) The HPLC determination was made by the following procedure: 2 mg of N-dimethyldiarepam (internal standard), 1 ml of citrate buffer (0.1 M, pH 6.2) and 6 ml of chloroform are added to 1 ml of plasma or to 1 ml of supernatant obtained after centrifuging a homogenized tissue in 3 volumes of physiological solution at 2000 r.p.m. for 5 minutes.
# (§7) After agitating for 20 minutes and centrifuging at 3000 r.p.m. for 5 minutes, the organic phase is separated and dried over a water bath at 70° C.
# (§8) The residue is collected in 50 μl of methanol, and 20 μl of the solution are injected into a HPLC (Gilson) column under the following conditions: column μ Bondopak C-18 ([…], wavelength 245 nm), flow: 0.7 ml/min, mobile phase: (A) 0.1% acetic acid and (B) methanol, gradient: […]
# [17] = plasma and tissue concentrations after oral administration to the rat (HPLC); format: in vivo; conditions: for concentration at 0.5 h: 0.5 hours after treatment; for concentration at 4 h: 4 hours after treatment; for concentration at 15 h: 15 hours after treatment
# Procedure: as §5
# The plasma and tissues (heart, kidney and liver) were withdrawn from groups of 3 female rats at various times after oral administration.
# as §6, §7, §8
# [18] = rat, 50 mg/kg oral, heart, read-out: Heart concentration
# [19] = rat, 50 mg/kg oral, kidney, read-out: Kidney concentration
# [20] = rat, 50 mg/kg oral, liver, read-out: Liver concentration
# [21] = rat, 50 mg/kg oral, plasma, read-out: Plasma concentration
structure (smiles),measurement,setting,value
"CC1Cn2cc(C(=O)O)c(=O)c3cc(F)c(N4CCN(C)CC4)c(c32)S1 (centres unmarked) [(X), 9-fluoro-10[N(N'-methyl)piperazinyl]-2-methyl-7-oxo-2,3-dihydro-7H-pyrido[1,2,3-de][1,4]benzothiazine-6-carboxylic acid]",MIC,[1],0.5 µg/mL
same,MIC,[2],0.25 µg/mL
same,MIC,[3],0.25 µg/mL
same,MIC,[4],0.5 µg/mL
same,MIC,[5],0.25 µg/mL
same,MIC,[6],2 µg/mL
same,MIC,[7],0.25 µg/mL
same,MIC,[8],8 µg/mL
same,MIC,[9],8 µg/mL
same,MIC,[10],16 µg/mL
same,MIC,[11],16 µg/mL
same,MIC,[12],2 µg/mL
same,MIC,[13],8 µg/mL
same,MIC,[14],2 µg/mL
same,MIC,[15],2 µg/mL
same,"urine concentrations, in words",[16],lasting and high
same,Cumulative excretion (urine),[16]; 0-1 hours after treatment,0.50 mg
same,Volume excreted (urine),[16]; 0-1 hours after treatment,5.5 mL
same,Cumulative excretion (urine),[16]; 1-2 hours after treatment,1.33 mg
same,Volume excreted (urine),[16]; 1-2 hours after treatment,3.2 mL
same,Cumulative excretion (urine),[16]; 2-4 hours after treatment,2.05 mg
same,Volume excreted (urine),[16]; 2-4 hours after treatment,7.2 mL
same,Cumulative excretion (urine),[16]; 4-8 hours after treatment,3.13 mg
same,Volume excreted (urine),[16]; 4-8 hours after treatment,6.0 mL
same,Cumulative excretion (urine),[16]; 8-24 hours after treatment,8.17 mg
same,Volume excreted (urine),[16]; 8-24 hours after treatment,28.0 mL
same,concentration at 1 h,"[16]; urine, 0-1 hours after treatment",90 µg/mL
same,concentration at 2 h,"[16]; urine, 1-2 hours after treatment",260 µg/mL
same,concentration at 4 h,"[16]; urine, 2-4 hours after treatment",100 µg/mL
same,concentration at 8 h,"[16]; urine, 4-8 hours after treatment",180 µg/mL
same,concentration at 24 h,"[16]; urine, 8-24 hours after treatment",180 µg/mL
same,dose excreted at 24 h,"[16]; urine, within 24 hours, of the orally administered dose, read-out: percentage urine excretion of the non-metabolized product",~27%
same,"absorption after oral administration, in words","[17]; rat, 50 mg/kg oral",rapidly absorbed after oral administration to induce high tissue levels
same,"heart, kidney and liver concentrations relative to plasma, in words","[17]; rat, 50 mg/kg oral",always greater than those observed in the plasma
same,"tissue bioavailability, in words","[17]; rat, 50 mg/kg oral",excellent tissue bioavailability
same,"concentrations relative to the MIC values, in words","[17]; rat, 50 mg/kg oral, 15 hours after administration",high concentrations relative to the MIC values are still present
same,concentration at 0.5 h,[17]; [18],19200 ng/g
same,concentration at 4 h,[17]; [18],18600 ng/g
same,concentration at 15 h,[17]; [18],4630 ng/g
same,concentration at 0.5 h,[17]; [19],34400 ng/g
same,concentration at 4 h,[17]; [19],38700 ng/g
same,concentration at 15 h,[17]; [19],5900 ng/g
same,concentration at 0.5 h,[17]; [20],62900 ng/g
same,concentration at 4 h,[17]; [20],34300 ng/g
same,concentration at 15 h,[17]; [20],9370 ng/g
same,concentration at 0.5 h,[17]; [21],10200 ng/mL
same,concentration at 4 h,[17]; [21],8100 ng/mL
same,concentration at 15 h,[17]; [21],3500 ng/mL
"CC1Cn2cc(C(=O)O)c(=O)c3cc(F)c(N4CCNCC4)c(c32)S1 (centres unmarked) [(XI), 9-fluoro-10[N-piperazinyl]-2-methyl-7-oxo-2,3-dihydro-7H-pyrido[1,2,3-de][1,4]benzothiazine-6-carboxylic acid]","results of the tests operating in accordance with the described procedures, in words","[17]; rat, in vivo",analogous to the tests carried out with compound (X)
"CC1Cn2cc(C(=O)O)c(=O)c3cc(F)c(N4CCCC4)c(c32)S1 (centres unmarked) [(XII), 9-fluoro-10[N-pyrrolidine]-2-methyl-7-oxo-2,3-dihydro-7H-pyrido[1,2,3-de][1,4]benzothiazine-6-carboxylic acid]",MIC,[1],16 µg/mL
same,MIC,[2],2 µg/mL
same,MIC,[3],2 µg/mL
same,MIC,[4],16 µg/mL
same,MIC,[5],2 µg/mL
same,MIC,[6],16 µg/mL
same,MIC,[7],2 µg/mL
same,MIC,[8],2 µg/mL
same,MIC,[9],2 µg/mL
same,MIC,[10],2 µg/mL
same,MIC,[11],16 µg/mL
same,MIC,[12],2 µg/mL
same,MIC,[13],16 µg/mL
same,MIC,[14],0.25 µg/mL
same,MIC,[15],0.25 µg/mL
same,"results of the tests operating in accordance with the described procedures, in words",[17]; compared with compound (X),analogous to the tests carried out with compound (X)
